Assay results reported in patent US10111874B2, “Combination therapies for treatment of cancer” (Araxes Pharma LLC, priority 2014, dated 2018).

Biological target: T1, KRAS G12C 1-169, his-tagged protein, GDP-loaded (Homo sapiens, UniProt P01116, G12C)
T1 construct: KRAS G12C 1-169, his-tagged protein, GDP-loaded
Experiment: Biochemical assay: covalent binding to KRAS G12C analyzed by mass spectrometry
Experimental: Compounds were tested for activity as follows:
Compounds were diluted to 50× final test concentration in DMSO in 96-well storage plates. […] Reactions were mixed carefully and thoroughly by pipetting up/down with a 200 μl multi-channel pipettor. […] 5 μl of 2% formic acid (Fisher cat#A117) in DI H2O was then added to each well followed by mixing with a pipette. The plate was then resealed with aluminum seal and stored on dry ice until analyzed as described below.
The above described assays were analyzed by mass spectrometry according to the following procedure:
The MS instrument is set to positive polarity, 2 GHz resolution, and low mass (1700) mode and allowed to equilibrate for 30 minutes. The instrument is then calibrated, switched to acquisition mode and the appropriate method loaded.
After another 30 minute equilibration time, a blank batch (i.e., buffer) is run to ensure equipment is operating properly. The samples are thawed at 37° C. for 10 minutes, briefly centrifuged, and transfer to the bench top. Wells A1 and H12 are spiked with 1 μL 500 μM internal standard peptide, and the plates centrifuged at 2000×g for 5 minutes. The method is then run and masses of each individual well recorded.
The masses (for which integration data is desired) for each well are pasted into the platemap and exported from the analysis. Masses for the internal standards are exported as well. The data at 50 ppm is extracted for the +19 charge state, and identity of well A1 is assigned using the internal standard spike and integrated. Peak data is exported as a TOF list and the above steps are repeated individually, for the +20, 21, 22, 23, 24, and 25 charge states.

[1] = compounds 247-342, measured at 30 min
[2] = compounds 1-47, measured at 24 h

T1 sequence (P01116 1-169 isoform P01116-2 G12C): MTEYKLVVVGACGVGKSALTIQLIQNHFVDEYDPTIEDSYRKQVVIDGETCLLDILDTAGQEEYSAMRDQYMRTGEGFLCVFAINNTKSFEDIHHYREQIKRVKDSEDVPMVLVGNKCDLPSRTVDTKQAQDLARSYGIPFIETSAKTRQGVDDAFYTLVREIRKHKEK

Structure (SMILES) | Binding % [1] | Binding % [2]
C=CC(=O)N1CCN(c2ncnc3c(F)c(-c4c(C)ccc5[nH]ncc45)c(Cl)cc23)CC1 [Compound 334, 1-(4-(6-chloro-8-fluoro-7-(5-methyl-1H-indazol-4-yl)quinazolin-4-yl)piperazin-1-yl)prop-2-en-1-one] | ++++ (++++indicates binding activity greater than 75%) | 
NC/C=C/C(=O)N1CCN(c2ncnc3c(F)c(-c4cc(O)cc5ccccc45)c(Cl)cc23)CC1 [Compound 335, (E)-4-amino-1-(4-(6-chloro-8-fluoro-7-(3-hydroxynaphthalen-1-yl)quinazolin-4-yl)piperazin-1-yl)but-2-en-1-one] | ++++ (++++indicates binding activity greater than 75%) | 
C=CC(=O)N1CCN(c2c(C#N)cnc3c(F)c(-c4c(C)ccc5[nH]ncc45)c(Cl)cc23)CC1C (stereo not drawn) [Compound 336, 4-(4-acryloyl-3-methylpiperazin-1-yl)-6-chloro-8-fluoro-7-(5-methyl-1H-indazol-4-yl)quinoline-3-carbonitrile] | +++ (+++indicates binding activity greater than 50% and up to 75%) | 
C=CC(=O)N1CCN(c2ncnc3c(F)c(-c4cc(C(F)F)cc5ccccc45)c(Cl)cc23)CC1 [Compound 337] | + (+indicates binding activity from 5% to 25%) | 
C=CC(=O)N1CCN(c2nc(N(C)C)nc3c(F)c(-c4c(C)ccc5[nH]ncc45)c(Cl)cc23)CC1 [Compound 338, 1-(4-(6-chloro-2-(dimethylamino)-8-fluoro-7-(5-methyl-1H-indazol-4-yl)quinazolin-4-yl)piperazin-1-yl)prop-2-en-1-one] | ++ (++indicates binding activity greater than 25% and up to 50%) | 
C=CC(=O)N1CCN(c2nc(OCCCN(C)C)nc3c(F)c(-c4c(C)ccc5[nH]ncc45)c(Cl)cc23)CC1 [Compound 339, 1-(4-(6-chloro-2-(3-(dimethylamino)propoxy)-8-fluoro-7-(5-methyl-1H-indazol-4-yl)quinazolin-4-yl)piperazin-1-yl)prop-2-en-1-one] | ++++ (++++indicates binding activity greater than 75%) | 
C=CC(=O)N1CCN(c2ncnc3c(F)c(-c4c(C)ccc5[nH]nc(F)c45)c(Cl)cc23)CC1 [Compound 340, 1-(4-(6-chloro-8-fluoro-7-(3-fluoro-5-methyl-1H-indazol-4-yl)quinazolin-4-yl)piperazin-1-yl)prop-2-en-1-one] | ++++ (++++indicates binding activity greater than 75%) | 
C=CC(=O)N1CCN(c2nc(OCCN(C)C)nc3c(F)c(-c4c(O)cccc4F)c(Cl)cc23)CC1 [Compound 341, 1-(4-(6-chloro-2-(2-(dimethylamino)ethoxy)-8-fluoro-7-(2-fluoro-6-hydroxyphenyl)quinazolin-4-yl)piperazin-1-yl)prop-2-en-1-one] | ++++ (++++indicates binding activity greater than 75%) | 
C=CC(=O)N1CCN(c2nc(OCCN3CCOCC3)nc3c(F)c(-c4c(C)ccc5[nH]ncc45)c(Cl)cc23)CC1 [Compound 342, 1-(4-(6-chloro-8-fluoro-7-(5-methyl-1H-indazol-4-yl)-2-(2-morpholinoethoxy)quinazolin-4-yl)piperazin-1-yl)prop-2-en-1-one] | ++++ (++++indicates binding activity greater than 75%) | 
C=CC(=O)N1CCN(c2ncnc3cc(Cl)c(-c4ccccc4Cl)cc23)CC1 [Compound I-1, 1-(4-(7-chloro-6-(2-chlorophenyl)quinazolin-4-yl)piperazin-1-yl)prop-2-en-1-one] |  | +++ (+++indicates binding activity greater than 50% and up to 75%)
C=CC(=O)N1CCC(Nc2ncnc3cc(Cl)c(-c4ccccc4Cl)cc23)CC1 [Compound I-2, 1-(4-(7-chloro-6-(2-chlorophenyl)quinazolin-4-ylamino)piperidin-1-yl)prop-2-en-1-one] |  | + (+indicates binding activity from 5% to 25%)
C=CC(=O)N1CCN(c2n[nH]c3cc(Cl)c(-c4ccccc4Cl)cc23)CC1 [Compound I-3, 1-(4-(6-chloro-5-(2-chlorophenyl)-1H-indazol-3-yl)piperazin-1-yl)prop-2-en-1-one] |  | + (+indicates binding activity from 5% to 25%)
